# Tests used:
# [1] = tested on: rats following Closed Head Injury (CHI); experiment: Rat model of closed head injury (cerebral edema, NSS); type: in vivo; conditions: for Neurological score 1hr / ΔNSS 24hr / Neurological score 24hr / Water content Left / Water content Right: rats, CHI; for Neurological score 1hr: 1 hr after injury; for Neurological score 24hr: 24 hr after injury; for Water content Left / Water content Right: doses of 5-10 mg/kg
# Description: The cerebroprotective effect of PRS-211 compounds was assessed in a model of head trauma (HT) in rats. Injury was induced in anesthetized rats by a weight-drop device followed by a recovery period of up to 48 hours. This type of trauma produces brain edema (i.e. increase in water content, decrease in specific gravity in the brain), breakdown of the blood brain barrier (BBB) and clinical dysfunction. The clinical status of the rats was evaluated 1, 24 and 48 hours after injury along with measuring the extent of cerebral edema. The neurological deficit, assessed by a set of criteria termed the Neurological Severity Score (NSS), is maximal at 1 hour after the initiation of head trauma. The NSS slowly decreases over time from the initiation of HT, with the gradual spontaneous recovery of the rats.
# The model was described in detail by Shapira et al., Crit. Care Med. 16:258-265, 1988. Rats were subjected to head trauma (HT) by a weight-drop device and surviving rats were followed up after one week. During that period they had free access to food and water, and were kept 2-3 rats to a cage. At any predesignated time (15 min, 1, 4, 24, 48 hrs, etc.) rats were sacrificed. Their brains were then rapidly removed and cortical tissue taken to determine water content, ions and the metabolites of interest at any particular metabolic cascade studied. During the recovery period, the clinical status was evaluated by a set of criteria (NSS).
# Trauma induced a significant decrease in specific gravity (SG) of brain tissue and increase in water content following head injury. Edema developed since more water accumulates in either the extracellular (vasogenic) or intracellular (cytotoxic) spaces. The methods employed to determine edema are based on linear gradient columns of bromobenzene and kerosene (for SG) and for water content on drying the tissue in a desiccated oven. Tissue pieces (20 mg each) were placed on top of the column and the SG calculated from the equilibrium position in the column, using a standard curve.
# The effect of PRS-211 analogs was calculated by the percent edema formation, where 100% was taken as edema in control, non-treated rats. Thus, the reduction in the SG was calculated as follows: SG(sham)-SG(drug)/SG(sham)-SG(cont) × 100 [formula] The increase in water content was calculated as follows: [%H2O(drug-%H2 O(sham)/%H2 O(cont)-%H2 O(sham)] × 100 [formula] All results presented in the table are statistically different (p<0.05) from control, traumatized vehicle treated rats.
# [2] = tested on: Nitric Oxide Synthase (NOS); experiment: Inhibition of nitric oxide synthase (nitrite fluorimetric assay, LPS-stimulated macrophage cultures); type: cell-based; conditions: LPS-stimulated macrophages
# From the text: (§1) Evaluation of the therapeutic effects of the novel PRS-211 compounds has now been carried out in a series of experimental systems to support the utility of these drugs as neuroprotectants, anti-inflammatory agents and anti-oxidative agents. These effects have been evaluated both in vitro and in vivo, and have been corroborated utilizing the following systems: • (a) Binding to the NMDA receptor linked channel: Non competitive antagonists of NMDA, the primary example of which is the compound MK-801, bind to a site within the NMDA receptor channel thus preventing the activation of the receptor-channel complex and the consequent neurotoxicity. The ability of various compounds to compete with the binding of tritium labeled MK-801 to brain membranes is considered a measure of their potency as NMDA non-competitive antagonists. • (b) Inhibition of prostaglandin production: The inhibitory effect of the new derivatives of Dexanabinol on prostaglandin synthesis is evaluated in macrophage cell cultures following LPS exposure to induce the inflammatory response. These assays are an indication of the anti-inflammatory activity of the individual analogs. • (c) Inhibition of Tumor Necrosis Factor Alpha: Specific aspects of the inflammatory response cascade are mediated by the cytokine TNFα. Inhibition of TNFα production and/or inhibition of TNFα release by the new analogs are assayed in macrophage cell cultures activated with LPS. This serves as another indication of the general anti-inflammatory potential of the novel compounds. • (d) Nitric Oxide Assay: As one aspect of the anti-oxidative potential of the novel analogs they were tested for their ability to inhibit the enzyme nitric oxide synthase (NOS). This assay can also serve as another indication of the anti-inflammatory cascade, as well as the anti-oxidative mechanisms. • (e) Ear Edema model: The anti-inflammatory activity of the new analogs is screened using an ear edema model in mice. This test system utilizes Croton oil or Arachidonic acid as inflammation inducers. The ability of the test compounds to prevent or diminish the inflammatory response to these stimulants is indicative of their systemic anti-inflammatory capability. • (f) Improved clinical outcome after closed head injury in rats: Severe head injury is associated with high mortality and severe neurological impairment. Animals subjected to head trauma in a controlled fashion serve as models in which to test drugs of therapeutic potential. Test compounds can be evaluated both for improved clinical outcome and for reduction of edema induced by closed head injury. The ability of compounds to reduce the severity of neurological symptoms and to reduce brain edema is considered a measure of their potency in reducing brain damage. • (g) Transient Middle cerebral artery occlusion (MCAo): The middle cerebral artery is the cerebral blood vessel most susceptible to stroke in humans. In animals, coagulation, permanent ligation or permanent placement of an occluding thread in the artery produces a permanent focal stroke affecting the MCA territory. Transient ligation or occlusion results in transient focal stroke. Both transient and permanent focal strokes result in varying degrees of edema and infarction in the affected brain regions. The ability of compounds to reduce the volumes of edema and infarction is considered a measure of their potential as anti-stroke treatment. • (h) Optic Nerve Crush: Application of mechanical pressure to the rat optical nerve results in crush injury of the axons, which is accompanied by immediate changes in oxidative metabolism and delayed axonal death and blindness. […]
# TNFα = experiment: Inhibition of TNFα in LPS-stimulated macrophage cell cultures (ELISA); type: cell-based; conditions: LPS-stimulated macrophages
# From the text: as §1
# ear edema model in mice = experiment: Ear edema model; type: in vivo; conditions: Mus musculus, Croton oil (CO) as inducer, IP
# From the text: as §1
Structure (SMILES),"edema formation and BBB disruption ([1]; given 30 min before, immediately after, or 1 and 2 hours after HT)","edema and clinical outcome ([1]; one dose of 5 mg/kg given 1 hour after the impact, measured 24 hours after HT)",Neurological score 1hr [1],ΔNSS 24hr [1],Neurological score 24hr [1],Water content Left [1],Water content Right [1],inhibition at 10 µM [2],inhibition at 10 µM (TNFα),ED50 (ear edema model in mice)
"CCCCCCC(C)(C)c1cc(O)c2c(c1)OC(C)(C)[C@H]1CC=C(Cn3ccnc3)C[C@H]21 (single isomer, unassigned) [211,095-000]",significantly reduces edema formation and BBB disruption,effectively reduced edema and improved the clinical outcome,11.9 ±0.6,6.5 ±0.45,5.4 ±0.5,82.89 ±0.48,79.75 ±0.20,14%,11%,29 µmol/kg
"CCCCCCC(C)(C)c1cc(O)c2c(c1)OC(C)(C)[C@H]1CC=C(CO)C[C@H]21 [211,007-000 HU-211, 1,1 dimethyl heptyl-(3 S,4S)-7-hydroxy-Δ^6-tetrahydrocannabinol, reference compound]",,,11.7 ±0.7,5.5 ±0.42,6.3 ±0.6,83.09 ±0.51,79.37 ±0.30,20%,33%,25 µmol/kg
